How the values were obtained:
C-IAP2 BIR3 = biological target: T1, C-IAP2 BIR3 (Homo sapiens, UniProt Q13489); test: Fluorescence polarization peptide binding assay, C-IAP2 BIR3; details: for IC50: 0.4 μM C-IAP-2 BIR3, 5 nM AVP-diPhe-FAM probe, one hour incubation; for Ki: determined from the IC50 values (procedure of Keating et al.)
T1 construct: 0.4 μM C-IAP-2 BIR3
Method: (§1) Polarization experiments were performed on an Analyst HT 96-384 reader (Molecular Devices Corp.) in order to determine dissociation constants (Kd) between IAP protein BIR domains and the fluorescent probe. Samples for fluorescence polarization affinity experiments were prepared by addition of serial dilutions of IAP BIR domains (C-IAP1 BIR3, C-IAP-2 BIR3, ML/X-IAP chimera MLXBIR3SG and X-IAP BIR3) in polarization buffer (50 mM Tris [pH 7.2], 120 mM NaCl, 1% bovine globulins 5 mM DTT and 0.05% octylglucoside) to 5-carboxyflourescein-conjugated AVPdi-Phe-NH2 (AVP-diPhe-FAM) at 5 nM final concentration.
(§2) The reactions were read after an incubation time of 1 hour at room temperature with standard cut-off filters for the fluorescein fluorophore (λex=485 nm; λem=530 nm) in 384-well black plates (Molecular Devices Corp.). Fluorescence polarization values were plotted as a function of the protein concentration, and the effective concentration 50 (EC50) values were obtained by fitting the data to a 4-parameter equation using Kaleidagraph software (Synergy software, Reading, Pa.). The apparent Kd values were determined from the EC50 values. Inhibition Constants (Ki values) for the antagonists were determined by the addition of 0.06 μM MLXBIR3SG, 0.5 μM X-IAP BIR3, 0.2 μM C-IAP1 BIR3 or 0.4 μM C-IAP-2 BIR3 to wells containing 5 nM of the AVP-diPhe-FAM probe as well as 1:3 serial dilutions of antagonist compounds starting at a concentration of 200 μM in the polarization buffer. Samples were read after an incubation time of one hour. Fluorescence polarization values were plotted as a function of the antagonist concentration, and the IC50 values were obtained by fitting the data to a 4-parameter equation using Kaleidagraph software (Synergy software, Reading, Pa.). Ki values for the antagonists were determined from the IC50 values according to the procedure of Keating, S. M., Marsters, J, Beresini, M., Ladner, C., Zioncheck, K., Clark, K., Arellano, F., and Bodary, S. (2000) in Proceedings of SPIE: In Vitro Diagnostic Instrumentation (Cohn, G. E., Ed.) pp 128-137, Bellingham, Wash. […] All values are micromolar.

[1] = biological target: T2, ML/X-IAP chimera MLXBIR3SG (Homo sapiens, UniProt Q96CA5, S150G); test: Fluorescence polarization peptide binding assay, MLXBIR3SG; details: for IC50: 0.06 μM MLXBIR3SG, 5 nM AVP-diPhe-FAM probe, one hour incubation; for Ki: determined from the IC50 values (procedure of Keating et al.)
T2 sequence (Q96CA5 with tags, fused parts or gaps S150G): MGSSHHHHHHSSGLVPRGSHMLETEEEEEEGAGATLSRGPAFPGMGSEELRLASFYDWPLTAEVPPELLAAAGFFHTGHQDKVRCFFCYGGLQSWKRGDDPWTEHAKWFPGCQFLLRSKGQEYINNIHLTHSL
Method: The following fluorescence polarization experiments used a chimeric BIR domain referred to as MLXBIR3SG in which 11 of 110 residues correspond to those found in XIAP BIR3, while the remainder correspond to ML-IAP BIR. […] The improved caspase-9 inhibition of the chimeric BIR domain MLXBIR3SG has been correlated with increased inhibition of doxorubicin-induced apoptosis when transfected into MCF7 cells.
as §1, §2

X-IAP BIR3 = biological target: T3, X-IAP BIR3 (Homo sapiens, UniProt P98170); test: Fluorescence polarization peptide binding assay, X-IAP BIR3; details: for IC50: 0.5 μM X-IAP BIR3, 5 nM AVP-diPhe-FAM probe, one hour incubation; for Ki: determined from the IC50 values (procedure of Keating et al.)
T3 construct: 0.5 μM X-IAP BIR3
T3 sequence (P98170 241-356 limits assumed): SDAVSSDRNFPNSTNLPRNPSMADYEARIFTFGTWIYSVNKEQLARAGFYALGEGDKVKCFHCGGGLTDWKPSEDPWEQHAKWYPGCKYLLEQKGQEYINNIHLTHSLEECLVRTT
Method: as §1, §2

C-IAP1 BIR3 = biological target: T4, C-IAP1 BIR3 (Homo sapiens, UniProt Q13490); test: Fluorescence polarization peptide binding assay, C-IAP1 BIR3; details: for IC50: 0.2 μM C-IAP1 BIR3, 5 nM AVP-diPhe-FAM probe, one hour incubation; for Ki: determined from the IC50 values (procedure of Keating et al.)
T4 construct: 0.2 μM C-IAP1 BIR3
T4 sequence (Q13490 253-363 limits assumed): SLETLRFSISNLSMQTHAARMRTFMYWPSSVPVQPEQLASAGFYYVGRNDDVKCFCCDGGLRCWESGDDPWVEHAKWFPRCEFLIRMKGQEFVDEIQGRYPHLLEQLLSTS
Method: as §1, §2

T1 sequence (Q13489 238-349 limits assumed): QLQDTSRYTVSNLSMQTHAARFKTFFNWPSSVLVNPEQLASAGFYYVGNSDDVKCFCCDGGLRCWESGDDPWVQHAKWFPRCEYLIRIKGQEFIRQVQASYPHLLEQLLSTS

Row | IC50 (C-IAP2 BIR3) | Ki (C-IAP2 BIR3) | IC50 [1] | Ki [1] | IC50 (X-IAP BIR3) | Ki (X-IAP BIR3) | IC50 (C-IAP1 BIR3) | Ki (C-IAP1 BIR3) | SMILES
1 | 6250 nM | 1350 nM | 4220 nM | 963 nM | > 200000 nM | > 35000 nM | 3890 nM | 602 nM | CN[C@@H](C)C(=O)N[C@H](C(=O)N[C@H](C(=O)NCC(c1ccccc1)c1ccccc1)C(C)(C)SC)C1CCCCC1 [Compound 13]
2 | 3480 nM | 751 nM | 4820 nM | 1100 nM | 13500 nM | 2410 nM | 2120 nM | 328 nM | CN[C@@H](C)C(=O)N[C@H](C(=O)N[C@H](C(=O)Nc1snnc1-c1ccccc1)C(F)(F)F)C1CCCCC1 [Compound 5]

From patent US20110046066A1, “INHIBITORS OF IAP” (GENENTECH, INC., priority 2008, published 2011)
